Data: patent US4563477A, “Process for the preparation of alpha-(N-pyrrolyl)-derivative acids, the salts and esters thereof; alpha-(N-pyrrolyl)-phenylacetic acids, the esters thereof, pharmaceutical compositions containing them and therapeutical applications thereof” (Antibioticos, S.A., priority 1982, dated 1986)

Tests used:
[1] = tested on: ADP induced platelet aggregation; assay: "Ex vivo" platelet anti-aggregation activity in rats (ADP induced platelet aggregation, Born aggregometer); design: species or system Wistar rats, ITA 177 SPF; conditions: 100 mg/kg p.o., n = 5, blood drawn 5 hours after administration; for Platelet aggregation %: control 86.4 ± 2.15, Duncan Kramer test p < 0.05; for Platelet aggregation, % inhibition: relative to control
Description: Acetylsalicyclic acid at a dose level of 100 mg/kg p.o. was used as standard.
The products to be tested were administered at the maximum dose of 200 mg/kg, p.o.
Both the standard and the products were administered dissolved or suspended in a 10 ml/kg Tween solution.
The animals were fasted during the test and for 17 hours prior thereto, but had water "ad libitum".
The % aggregation was calculated measuring the difference in mm in the recorder between the initial aggregation stage and the height of the specimen curve 6 minutes after the onset of aggregation.
This figure, therefore, is calculated as a percentage, taking as 100% the figure in mm of the difference between the platelet rich plasma (prp) and the platelet poor plasma (ppp) obtained in balancing the apparatus for the specimen under examination.
"Ex vivo" platelet anti-aggregation activity in rats

[2] = tested on: 0.5% acetic acid induced contorsions in NMRI mice; assay: Peripheral analgesic activity: 0.5% acetic acid induced contorsions in NMRI mice; assay type: in vivo; conditions: male NMRI mice, n = 10, 100 mg/kg p.o.; for % inhibition relative to control (contorsions) / No mice with contorsions: 0.5% acetic acid i.p.; for No contorsions (X ± s.e.): 0.5% acetic acid i.p. after 30 minutes, observed half an hour, mean ± s.e., control 27.1 ± 4.3, Duncan Kramer test p < 0.05; for No mice with contorsions: control 10/10
Description: The experimental method consists of injecting an irritant, such as acetic acid, into the […] peritoneum and provoking obviously appreciable painful contorsions such as stretching of the rear paws and twisting of the dorso-abdominal muscles.
The material used consisted of lots of NMRI mice bred in our SPF breeding centre under constant temperature and humidity conditions of 23°±0.5° C. and 70±5%.
Standard: acetylsalicylic acid
Vehicle: propylene glycol/water--40/60 v.
Transparent plastic cages.
With this material the mice were randomly distributed into groups of 10 animals. The test order and the treatment to be given to each group was also randomised. […]
The control lot received the vehicle. As standard, acetylsalicylic acid at a dose level of 100 mg/kg, suspended in the same vehicle and administered p.o., was used.
After 30 minutes, 0.25 ml per 20 g body weight of a 0.5% acetic acid solution was administered intraperitoneally.
The number of painful contorsions were counted and, for evaluating the results, the means of the number of stretches of each lot were calculated and were expressed as inhibition percentages relative to the control, as per the following equation: [formula] where c is the mean of the number of stretches of the control group and b is the mean of the number of stretches of the treated group.
The statistical significance between the lots may be ascertained with the Duncan-Kramer test, with p<0.05.
0.5% acetic acid induced contorsions in NMRI mice male (n = 10)

Row | Structure (SMILES) | Platelet aggregation % [1] [%] | Platelet aggregation, % inhibition [1] [%] | % inhibition relative to control (contorsions) [2] [%] | No contorsions (X ± s.e.) [2] | No mice with contorsions [2]
1 | CCCCC1C(=O)N(c2ccccc2)N(c2ccccc2)C1=O [Phenylbutazone, reference compound] | 58.2 ± 7.35 | 32.6 |  |  | 
2 | O=C(O)C(c1ccc(O)cc1)n1cccc1 (racemic) [Dibenzylammonium DL(±)-alpha-(N-pyrrolyl)-p-hydroxy-phenylacetate] |  |  | 72.3 | 7.5 ± 2.2 | 9/10
3 | O=C(O)[C@@H](c1ccccc1)n1cccc1 [D(+)-alpha-(N-pyrrolyl)-phenylacetic acid] |  |  | 70.9 | 7.9 ± 2.6 | 8/10
4 | O=C(O)C(c1ccccc1)n1cccc1 (racemic) [DL(±)-alpha-(N-pyrrolyl)-phenylacetic acid] | 25.3 ± 9.28 | 70.7 | 79.7 | 5.5 ± 1.8 | 7/10
5 | O=C(O)[C@H](c1ccccc1)n1cccc1 [L(-)-alpha-(N-pyrrolyl)-phenylacetic acid] |  |  | 76.2 | 6.4 ± 1.9 | 8/10
6 | CCOC(=O)C(c1ccccc1)n1cccc1 (racemic) [Ethyl DL(±)-alpha-(N-pyrrolyl)-phenylacetate] | 42.0 ± 2.58 | 51.4 |  |  | 
7 | CC(=O)Oc1ccccc1C(=O)O [Acetylsalicylic acid, reference compound] | 20.1 ± 1.49 | 76.7 | 37.27 | 17 ± 3.5 | 10/10
8 | O=C(O)Cn1cccc1 [Alpha-(N-pyrrolyl)-acetic acid] | 63.1 ± 3.32 | 27.0 |  |  | 
